Where two headings read alike, the source gives them in different places.
Biological target: EBI2 (Homo sapiens, UniProt P32249)
Assay: Cell-based luminescent assay (EBI2 modulation)
Procedure: Cell-Based Luminescent Assay
To assess EBI2 modulation, the compounds described herein were assayed in the following cell-based luminescent assay:
1) Plated 600 cells/well in 4 uL of assay media into columns 1-48 of a 1536-well assay plate, using a liquid dispenser.
2) Centrifuged plates at 1000 rpm for 1 minute and covered with lids.
3) Incubated overnight at 37° C., 100% relative humidity, 5% CO2.
1) Centrifuged compound plates containing compounds described herein at 500 rpm for 1 minute.
2) Added compounds into assay plate col 5-48 to final concentration 4-5 uM. Added matching amount of DMSO to positive and negative control wells in columns 1-4.
3) Dispensed 2 ul/well of assay media to columns 1-2 for the positive control wells.
4) Added 2 ul/well of 400 nM 7a,25-OHC (final assay concentration=80 nM) in assay media to columns 3-48 for the negative control and test compound wells.
5) Centrifuged plates at 1000 rpm for 1 minute and re-lid plates.
6) Incubated plates at 37° C., 100% relative humidity, 5% CO2 for 60 minutes.
7) Following 60 minute incubation, delivered 2.5 uL of Detection Reagent solution to each assay plate (Columns 1-48) using a liquid handler.
8) Centrifuged plates at 2000 rpm for 2 minutes and re-lid plates.
9) Incubated plates for 60 minutes at 25 degrees in the dark.
10) Read plates using the Viewlux, Envision or other suitable plate reader using a luminescence detection.
The experimental values were normalized by the difference between values from neutral and stimulator control wells in each plate. Then normalized data was corrected to remove systematic plate patterns due to artifacts such as dispensing tip issues etc.

[1] = cell-based luminescence, 7a,25-OHC final assay concentration 80 nM, 60 minutes incubation, read-out: IC50

Chain of EBI2 (P32249 whole entry): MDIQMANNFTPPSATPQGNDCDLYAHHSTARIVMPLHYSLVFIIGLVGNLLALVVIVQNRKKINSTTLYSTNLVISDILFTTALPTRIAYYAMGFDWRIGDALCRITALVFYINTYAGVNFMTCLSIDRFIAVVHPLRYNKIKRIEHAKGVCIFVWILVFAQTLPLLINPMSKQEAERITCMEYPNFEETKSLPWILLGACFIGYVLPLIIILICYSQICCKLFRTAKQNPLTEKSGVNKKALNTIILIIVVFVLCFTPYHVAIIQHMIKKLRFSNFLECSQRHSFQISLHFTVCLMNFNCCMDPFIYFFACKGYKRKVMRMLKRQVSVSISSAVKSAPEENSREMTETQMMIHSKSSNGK

Compound | IC50 [1] | IC50
4-{[4-fluoro-2-(trifluoromethyl)phenyl]methyl}piperazinyl 5-(trifluoromethyl)indol-2-yl ketone [Compound C418] | 100 to 500 nM | 
4-{[4-fluoro-3-(trifluoromethyl)phenyl]methyl}piperazinyl 5-(trifluoromethyl)indol-2-yl ketone [Compound C415] | 100 to 500 nM | 
4-{[(4-bromophenyl)sulfonyl]amino}piperidyl 5-chloroindol-2-yl ketone [Compound C306] | < 100 nM | 
5-bromoindol-2-yl 4-[(4-chlorophenyl)carbonyl]piperazinyl ketone [Compound C85] | < 100 nM | 
5-bromoindol-2-yl 4-[(4-chlorophenyl)methyl]piperazinyl ketone [Compound C303] | < 100 nM | 
5-chloroindol-2-yl 4-[(4-(3-pyridyl)phenyl)carbonyl]piperazinyl ketone [Compound C254] | < 100 nM | 
5-chloroindol-2-yl 4-{[4-(4-chlorophenyl)phenyl]sulfonyl}piperazinyl ketone [Compound C172] | 500 to 5000 nM | 
5-methylindol-2-yl 4-(3-pyridylmethyl)piperazinyl ketone [Compound C458] | 100 to 500 nM | 
5-methylindol-2-yl 4-(phenylethyl)piperazinyl ketone [Compound C148] | < 100 nM | 
5-methylindol-2-yl 4-benzylpiperazinyl ketone [Compound C376] | < 100 nM | 
6-bromoindol-2-yl 4-[(4-chlorophenyl)carbonyl]piperazinyl ketone [Compound C239] | < 100 nM | 
6-bromoindol-2-yl 4-[(4-chlorophenyl)methyl]piperazinyl ketone [Compound C471] | 100 to 500 nM | 
6-fluoroindol-2-yl 4-[(4-fluorophenyl)carbonyl]piperazinyl ketone [Compound C425] | 100 to 500 nM | 
O=C(/C=C/c1ccc(Br)cc1)N1CCN(C(=O)c2ccc(Cl)cc2)CC1 [Compound C1, (E)-3-(4-bromophenyl)-1-(4-(4-chlorobenzoyl)piperazin-1-yl) prop-2-en-1-one] | < 100 nM | 
O=C(/C=C/c1ccc(Br)cc1)N1CCN(C(=O)c2ccc(P(=O)(O)O)cc2)CC1 [Compound C3, (E)-(4-(4-(3-(4-bromophenyl)acryloyl)piperazine-1-carbonyl)phenyl)phosphonic acid] | < 100 nM | 
Cc1ccc(C(=O)N2CCN(C(=O)/C=C/c3ccc(Br)cc3)CC2)cc1 [Compound C4, (2E)-3-(4-bromophenyl)-1-{4-[(4-methylphenyl)carbonyl]piperazinyl} prop-2-en-1-one] | < 100 nM | 
O=C(/C=C/c1ccc(Cl)c(Cl)c1)N1CCN(C(c2ccccc2)c2ccccc2)CC1 [Compound C5, (2E)-3-(3,4-dichlorophenyl)-1-[4-(diphenylmethyl)piperazinyl] prop-2-en-1-one] | < 100 nM | 
O=C(/C=C/c1ccc(Cl)c(Cl)c1)N1CCN(C(=O)c2ccc(C(F)(F)F)cc2)CC1 [Compound C6, (2E)-3-(3,4-dichlorophenyl)-1-(4-{[4-(trifluoromethyl)phenyl]carbonyl}piperazinyl) prop-2-en-1-one] | < 100 nM | 
COc1ccc(C(=O)N2CCN(C(=O)C#Cc3ccc(Cl)cc3)CC2)cc1 [Compound C7, 3-(4-chlorophenyl)-1-{4-[(4-methoxyphenyl)carbonyl]piperazinyl}prop-2-yn-1-one] | < 100 nM | 
COc1ccc(C(=O)N2CCN(C(=O)C#Cc3ccc(C)cc3)CC2)cc1 [Compound C8, 1-{4-[(4-methoxyphenyl)carbonyl]piperazinyl}-3-(4-methylphenyl)prop-2-yn-1-one] | < 100 nM | 
COc1ccc(C(=O)N2CCN(C(=O)C#Cc3ccc(C(F)(F)F)cc3)CC2)cc1 [Compound C9, 1-{4-[(4-methoxyphenyl)carbonyl]piperazinyl}-3-[4-(trifluoromethyl)phenyl]prop-2-yn-1-one] | < 100 nM | 

Compound | IC50 [1] | IC50
COc1ccc(C(=O)N2CCN(C(=O)C#Cc3ccc(Br)cc3)CC2)cc1 [Compound C10, 3-(4-bromophenyl)-1-{4-[(4-methoxyphenyl)carbonyl]piperazinyl}prop-2-yn-1-one] | < 100 nM | 
COc1ccc(C(=O)N2CCN(C(=O)C=Cc3ccc(Cl)c(Cl)c3)CC2)cc1 [Compound C11, 3-(3,4-dichlorophenyl)-1-{4-[(4-methoxyphenyl)carbonyl]piperazinyl}prop-2-en-1-one] | < 100 nM | 
COc1ccc(C(=O)N2CCN(C(=O)C#Cc3ccc(Cl)c(Cl)c3)CC2)cc1 [Compound C12, 3-(3,4-dichlorophenyl)-1-{4-[(4-methoxyphenyl)carbonyl]piperazinyl}prop-2-yn-1-one] | < 100 nM | 
O=C(/C=C/c1ccc(Br)cc1)N1CCC(Nc2ccccc2)CC1 [Compound C13, (2E)-3-(4-bromophenyl)-1-[4-(phenylamino)piperidyl]prop-2-en-1-one] |  | < 100 nM
O=C(/C=C/c1ccc(Br)cc1)N1CCN(C(=O)c2ccccc2)CC1 [Compound C14, (2E)-3-(4-bromophenyl)-1-[4-(phenylcarbonyl)piperazinyl]prop-2-en-1-one] | < 100 nM | 
O=C(/C=C/c1ccc(Br)cc1)N1CCC(Nc2cc(F)cc(F)c2)CC1 [Compound C15, (2E)-1-{4-[(3,5-difluorophenyl)amino]piperidyl}-3-(4-bromophenyl)prop-2-en-1-one] |  | < 100 nM
O=C(C#Cc1ccc(Cl)cc1)N1CCN(C(=O)c2ccc(Cl)cc2)CC1 [Compound C16, 3-(4-chlorophenyl)-1-{4-[(4-chlorophenyl)carbonyl]piperazinyl}prop-2-yn-1-one] | < 100 nM | 
COc1ccc(/C=C/C(=O)N2CCN(C(c3ccccc3)c3ccccc3)CC2)cc1 [Compound C17, (2E)-1-[4-(diphenylmethyl)piperazinyl]-3-(4-methoxyphenyl)prop-2-en-1-one] | < 100 nM | 
O=C(C#Cc1cccc(Cl)c1Cl)N1CCN(C(=O)c2ccc(F)cc2)CC1 [Compound C18, 3-(2,3-dichlorophenyl)-1-{4-[(4-fluorophenyl)carbonyl]piperazinyl}prop-2-yn-1-one] | < 100 nM | 
O=C(/C=C/c1ccc(Cl)c(Cl)c1)N1CCN(C(=O)c2ccc(F)cc2)CC1 [Compound C20, (2E)-3-(3,4-dichlorophenyl)-1-{4-[(4-fluorophenyl)carbonyl]piperazinyl}prop-2-en-1-one] | < 100 nM | 
CCOc1ccc(/C=C/C(=O)N2CCN(C(c3ccccc3)c3ccccc3)CC2)cc1 [Compound C21, (2E)-1-[4-(diphenylmethyl)piperazinyl]-3-(4-ethoxyphenyl)prop-2-en-1-one] | < 100 nM | 
O=C(/C=C/c1ccc(F)cc1)N1CCN(S(=O)(=O)C2=Cc3ccccc3CC2)CC1 [Compound C22, (2E)-1-[4-(2-3,4-dihydronaphthylsulfonyl)piperazinyl]-3-(4-fluorophenyl)prop-2-en-1-one] | < 100 nM | 
O=C(/C=C/c1ccc(Cl)c(Cl)c1)N1CCN(C(=O)c2ccc(Cl)cc2)CC1 [Compound C23, (2E)-3-(3,4-dichlorophenyl)-1-{4-[(4-chlorophenyl)carbonyl]piperazinyl}prop-2-en-1-one] | < 100 nM | 
O=C(C#Cc1ccc(Cl)cc1)N1CCN(C(=O)c2ccc(F)cc2)CC1 [Compound C28, 3-(4-chlorophenyl)-1-{4-[(4-fluorophenyl)carbonyl]piperazinyl}prop-2-yn-1-one] | < 100 nM | 
O=C(/C=C/c1ccc(C(F)(F)F)cc1)N1CCN(C(c2ccccc2)c2ccccc2)CC1 [Compound C29, (2E)-1-[4-(diphenylmethyl)piperazinyl]-3-[4-(trifluoromethyl)phenyl]prop-2-en-1-one] | < 100 nM | 
O=C(/C=C/c1ccc(Br)cc1)N1CCN(Cc2cc(F)cc(F)c2)CC1 [Compound C31, (2E)-1-{4-[(3,5-difluorophenyl)methyl]piperazinyl}-3-(4-bromophenyl)prop-2-en-1-one] | < 100 nM | 
Cc1cc(CN2CCN(C(=O)/C=C/c3ccc(Br)cc3)CC2)ccc1F [Compound C32, (2E)-3-(4-bromophenyl)-1-{4-[(4-fluoro-3-methylphenyl)methyl]piperazinyl}prop-2-en-1-one] | < 100 nM | 
Cc1ccc(C#CC(=O)N2CCN(C(=O)c3ccc(Cl)cc3)CC2)cc1 [Compound C33, 1-{4-[(4-chlorophenyl)carbonyl]piperazinyl}-3-(4-methylphenyl)prop-2-yn-1-one] | < 100 nM | 
O=C(C#Cc1cccc(Cl)c1)N1CCN(C(=O)c2ccc(Cl)cc2)CC1 [Compound C34, 3-(3-chlorophenyl)-1-{4-[(4-chlorophenyl)carbonyl]piperazinyl}prop-2-yn-1-one] | < 100 nM | 
O=C(C#Cc1cccc(Cl)c1)N1CCN(C(=O)c2ccc(F)cc2)CC1 [Compound C35, 3-(3-chlorophenyl)-1-{4-[(4-fluorophenyl)carbonyl]piperazinyl}prop-2-yn-1-one] | < 100 nM | 
O=C(/C=C/c1ccc(Br)cc1)N1CCN(S(=O)(=O)c2ccc(Br)cc2)CC1 [Compound C37, (2E)-3-(4-bromophenyl)-1-{4-[(4-bromophenyl)sulfonyl]piperazinyl}prop-2-en-1-one] | < 100 nM | 

Reference: patent US9776979B2, “EBI2 modulators” (Sanford-Burnham Medical Research Institute, priority 2013, dated 2017)
